In patent US8980934B2, “Kinase inhibitors and method of treating cancer with same” (University Health Network, priority 2012, dated 2015):

Legend:
Format in all cases: cell-based
[1] = system: HCT116 colon cancer cells; assay: Cancer cell growth inhibition, Sulforhodamine B assay; settings: Homo sapiens, HCT-116, 120 h; HCT116, 5 days culture, SRB; read-out: Cancer Cell Line GI50 Range HCT116
Description: (§1) Breast cancer cells (MDA-MB-231), colon cancer cells (HCT116) and ovarian cancer cells (PA-1) were seeded (1000 to 4000 in 80 μl per well depending on the cell growth rate) into 96 well plates 24 hours before compound overlay. Compounds were prepared as 10 mM stock solutions in 100% DMSO which were diluted with DMEM (Dulbecco's Modified Eagle's Medium) cell growth Medium (Invitrogen, Burlington, ON, Canada) containing 10% FBS (Fetal Bovine Serum) to concentrations ranging from 50 nM to 250 μM. Aliquots (20 μl) from each concentration were overlaid to 80 μl of the pre-seeded cells in the 96 well plates to make final concentrations of 10 nM to 50 μM. The cells were cultured for 5 days before the Sulforhodamine B assay (SRB) was performed to determine the compound's cell growth inhibition activity.
(§2) Sulforhodamine B (purchased from Sigma, Oakville, ON, Canada) is a water-soluble dye that binds to the basic amino acids of the cellular proteins. Thus, colorimetric measurement of the bound dye provides an estimate of the total protein mass that is related to the cell number. the cells are fixed in situ by gently aspirating off the culture media and adding 50 μl ice cold 10% Trichloroacetic Acid (TCA) per well and incubate at 4° C. for 30-60 min. The plates are washed with H2O five times and allowed to air dry for 5 min. Addition of 50 μl 0.4% (w/v) SRB solution in 1% (v/v) acetic acid to each well and incubatation for 30 min at RT completes the staining reaction. Following staining, plates are washed four times with 1% acetic acid to remove unbound dye and then allowed to air dry for 5 min. The stain is solubilized with 100 μl of 10 mM Tris pH 10.5 per well. Absorbance is read at 570 nm.
(§3) The percentage (%) of relative growth inhibition was calculated by comparing to DMSO treated only cells (100%). GI50's were determined for compounds with cytotoxic activity. The GI50 was calculated using GraphPad PRISM software (GraphPad Software, Inc., San Diego, Calif., USA). GI50 (growth inhibition) is the compound concentration that causes 50% inhibition of cell growth.
(§4) In Table 1 below, GI50 value ranges for several compound examples against breast cancer cell lines (MDA-MB-231), colon cancer cell lines (HCT116) and ovarian cancer cell lines (PA-1) are given. […] The GI50 ranges are indicated as “A,” “B,” and “C,” for values less than or equal to 0.1 μM; those greater than 0.1 μM and less than or equal to 0.5 μM; and those greater than 0.5 μM, respectively.

[2] = system: MDA-MB-231 breast cancer cells; assay: as above; settings: Homo sapiens, 120 h; MDA-MB-231, 5 days culture, SRB; read-out: Cancer Cell Line GI50 Range MDA-MB-231
Description: as §1, §2, §3, §4

[3] = system: PA-1 ovarian cancer cells; assay: as above; settings: 120 h; PA-1, 5 days culture, SRB; read-out: Cancer Cell Line GI50 Range PA-1
Description: as §1, §2, §3, §4

[4] = system: colon 12 tumor initiating cells; assay: Colon tumor-initiating cell growth inhibition, Alamar Blue assay; settings: 216 h, colon TICs, 9 days culture, read-out: Tumor Initiating Cell Line GI50 Range colon 12
Source text: (§5) Non-tissue or tissure cultured treated T-75 flask and 96-well plates were purchased from VWR. Vitamin B-27 supplement, MEM NEAA (minimum essential medium non essential amino acids), sodium pyruvate, L-glutamine, N2 supplement, penicillin-streptomycin and fungizone/amphotericin B were obtained from Invitrogen. Lipid mixture, heparin and EGF were purchased from Sigma; bFGF from BD Biosciences. Colon tumor initiating cells (TICs) were routinely maintained using non-tissue cultured treated T-75 flasks in DMEM:F12 medium containing 0.2XB-27 supplement, 4 ug/ml heparin, 1XMEM NEAA, 1Xsodium pyruvate, 1 mM glutamine, 10 pg/ul bFGF, 20 pg/ul EGF, 1×N2 supplement, lipid mixture, penicillin-streptomycin and fungizone/amphotericin B. Ovarian TICs were routinely maintained using tissue cultured treated T-75 flasks in DMEM:F12 medium containing 1XB-27 supplement, 4 ug/ml heparin, 20 pg/ul bFGF, 20 pg/ul EGF and penicillin-streptomycin.
(§6) Compounds described herein were dissolved in DMSO and further diluted in cell culture medium for GI50 determination. Colon TICs were trypsinized and seeded into non-tissue cultured treated 96-well plates with 4,000 cells/well. After 24 h, compound was added into the cell culture at different concentrations, and the final concentration of DMSO was adjusted to 0.1%. Cells were then cultured at 37° C. for 9 days. Ovarian TICs were trypsinized and seeded into tissue cultured treated 96-well plates with 1,000 cells/well. After 24 h, compound was added into the cell culture at different concentrations, and the final concentration of DMSO was adjusted to 0.1%. Cells were then cultured at 37° C. for 6 days. Cell viability was assessed by Alamar Blue assay: 10 ul of Alamar Blue was added into each well. After 4 hours incubation at 37° C., fluorescence was recorded at excitation 544 and emission 590. GI50 (Growth inhibition) was calculated using GraphPad Prism 4.0 software. Cell growth inhibition data for compounds described herein is tabulated below (Table 2). The GI50 ranges are indicated as “A,” and “B”, for values less than or equal to 0.1 μM: those greater than 0.1 μM and less than or equal to 0.5 μM, respectively.

[5] = system: ovarian 2393A tumor initiating cells; assay: Ovarian tumor-initiating cell growth inhibition, Alamar Blue assay; settings: 144 h, ovarian TICs, 6 days culture, read-out: Tumor Initiating Cell Line GI50 Range ovarian 2393A
Source text: as §5, §6

| SMILES | GI50 [1] [nM] | GI50 [2] [nM] | GI50 [3] [nM] | GI50 [4] [nM] | GI50 [5] [nM] |
| --- | --- | --- | --- | --- | --- |
| O=C(N[C@@H](c1ccccn1)C1CC1)c1ccc2[nH]nc(-c3ccc(N4CC5(COC5)C4)cc3)c2c1 [Example A6, (R)-3-(4-(2-oxa-6-azaspiro[3.3]heptan-6-yl)phenyl)-N-(cyclopropyl(pyridin-2-yl)methyl)-1H-indazole-5-carboxamide] | ≤ 100 | 100 to 500 | ≤ 100 | 100 to 500 | 100 to 500 |
| O=C(N[C@H](c1ccccn1)C1CC1)c1ccc2[nH]nc(-c3ccc(N4CC5(CCOCC5)C4)cc3)c2c1 [Example A18, (S)-3-(4-(7-Oxa-2-azaspiro[3.5]nonan-2-yl)phenyl)-N-(cyclopropyl(pyridin-2-yl)methyl)-1H-indazole-5-carboxamide] | ≤ 100 | ≤ 100 | ≤ 100 | ≤ 100 | 100 to 500 |
| O=C(NC(c1ncccn1)C1CCCC1)c1ccc2[nH]nc(-c3ccc(N4CC5(COC5)C4)cc3)c2c1 (stereo not drawn) [Example A24, 3-(4-(2-oxa-6-azaspiro[3.3]heptan-6-yl)phenyl)-N-(cyclopentyl(pyrimidin-2-yl)methyl)-1H-indazole-5-carboxamide] | ≤ 100 | ≤ 100 | ≤ 100 | ≤ 100 | ≤ 100 |
| O=C(N[C@@H](c1ncccn1)C1CCCC1)c1ccc2[nH]nc(-c3ccc(N4CCC45COC5)cc3)c2c1 [Example A37, (R)-3-(4-(6-oxa-1-azaspiro[3.3]heptan-1-yl)phenyl)-N-(cyclopentyl(pyrimidin-2-yl)methyl)-1H-indazole-5-carboxamide] | ≤ 100 | ≤ 100 | ≤ 100 |  |  |
| O=C(NC(c1ccccn1)C1CCCC1)c1ccc2[nH]nc(-c3ccc(N4CC5(COC5)C4)cc3)c2c1 (stereo not drawn) [Example A7, 3-(4-(2-Oxa-6-azaspiro[3.3]heptan-6-yl)phenyl)-N-(cyclopentyl(pyridin-2-yl)methyl)-1H-indazole-5-carboxamide] | ≤ 100 | ≤ 100 | ≤ 100 | ≤ 100 | ≤ 100 |
| O=C(N[C@H](c1ccccn1)C1CCCC1)c1ccc2[nH]nc(-c3ccc(N4CCC45COC5)cc3)c2c1 [Example A34, (S)-3-(4-(6-Oxa-1-azaspiro[3.3]heptan-1-yl)phenyl)-N-(cyclopentyl(pyridin-2-yl)methyl)-1H-indazole-5-carboxamide] | 100 to 500 | 100 to 500 | 100 to 500 |  |  |
| O=C(N[C@@H](c1ccccn1)C1CCCC1)c1ccc2[nH]nc(-c3ccc(N4CC5(COC5)C4)cc3)c2c1 [Example A8, (R)-3-(4-(2-Oxa-6-azaspiro[3.3]heptan-6-yl)phenyl)-N-(cyclopentyl(pyridin-2-yl)methyl)-1H-indazole-5-carboxamide] | ≤ 100 | ≤ 100 | ≤ 100 | ≤ 100 | ≤ 100 |
| O=C(N[C@@H](c1ccsc1)C1CCCC1)c1ccc2[nH]nc(-c3ccc(N4CC5(COC5)C4)cc3)c2c1 [Example A9, 3-(4-(2-Oxa-6-azaspiro[3.3]heptan-6-yl)phenyl)-N-((R)-cyclopentyl(thiophen-3-yl)methyl)-1H-indazole-5-carboxamide] | 100 to 500 | > 500 | 100 to 500 |  |  |
| O=C(N[C@H](c1ccccn1)C1CC1)c1ccc2[nH]nc(-c3ccc(N4CC5(CCO5)C4)cc3)c2c1 [Example A21, (S)-3-(4-(1-Oxa-6-azaspiro[3.3]heptan-6-yl)phenyl)-N-(cyclopropyl(pyridin-2-yl)methyl)-1H-indazole-5-carboxamide] | ≤ 100 | ≤ 100 | ≤ 100 |  |  |
| O=C(N[C@H](c1ccccn1)C1CCCC1)c1ccc2[nH]nc(-c3ccc(N4CC5(C4)CN(C4COC4)C5)cc3)c2c1 [Example A31, (S)-N-(Cyclopentyl(pyridin-2-yl)methyl)-3-(4-(6-(oxetan-3-yl)-2,6-diazaspiro[3.3]heptan-2-yl)phenyl)-1H-indazole-5-carboxamide] | ≤ 100 | ≤ 100 | ≤ 100 |  |  |

Results, then the molecule that gave them:

| GI50 [1] [nM] | GI50 [2] [nM] | GI50 [3] [nM] | GI50 [4] [nM] | GI50 [5] [nM] | SMILES |
| --- | --- | --- | --- | --- | --- |
| ≤ 100 | 100 to 500 | ≤ 100 | ≤ 100 | 100 to 500 | Cc1ccccc1C(NC(=O)c1ccc2[nH]nc(-c3ccc(N4CC5(COC5)C4)cc3)c2c1)C1CC1 (stereo not drawn) [Example A3, 3-(4-(2-Oxa-6-azaspiro[3.3]heptan-6-yl)phenyl)-N-(cyclopropyl(o-tolyl)methyl)-1H-indazole-5-carboxamide] |
| ≤ 100 | ≤ 100 | ≤ 100 | ≤ 100 | ≤ 100 | CC(C)C(NC(=O)c1ccc2[nH]nc(-c3ccc(N4CC5(COC5)C4)cc3)c2c1)c1ccccc1Cl (stereo not drawn) [Example A11, 3-(4-(2-Oxa-6-azaspiro[3.3]heptan-6-yl)phenyl)-N-(1-(2-chlorophenyl)-2-methylpropyl)-1H-indazole-5-carboxamide] |
| ≤ 100 | ≤ 100 | ≤ 100 | ≤ 100 | ≤ 100 | CC(C)[C@H](NC(=O)c1ccc2[nH]nc(-c3ccc(N4CC5(COC5)C4)cc3)c2c1)c1ccccc1Cl [Example A12, 3-(4-(2-Oxa-6-azaspiro[3.3]heptan-6-yl)phenyl)-N-((S)-1-(2-chlorophenyl)-2-methylpropyl)-1H-indazole-5-carboxamide] |
| ≤ 100 | ≤ 100 | ≤ 100 | 100 to 500 | ≤ 100 | O=C(N[C@H](c1ccccn1)C1CC1)c1ccc2[nH]nc(-c3ccc(N4CC5(COC5)C4)cc3)c2c1 [Example A5, (S)-3-(4-(2-Oxa-6-azaspiro[3.3]heptan-6-yl)phenyl)-N-(cyclopropyl(pyridin-2-yl)methyl)-1H-indazole-5-carboxamide] |
| ≤ 100 | 100 to 500 | ≤ 100 |  |  | CC(C)[C@@H](NC(=O)c1ccc2[nH]nc(-c3ccc(N4CC5(COC5)C4)cc3)c2c1)c1ccccc1Cl [Example A13, 3-(4-(2-Oxa-6-azaspiro[3.3]heptan-6-yl)phenyl)-N-((R)-1-(2-chlorophenyl)-2-methylpropyl)-1H-indazole-5-carboxamide] |
| ≤ 100 | ≤ 100 | ≤ 100 |  |  | CC(C)[C@H](NC(=O)c1ccc2[nH]nc(-c3ccc(N4CC5(C4)CN(C4COC4)C5)cc3)c2c1)c1ccccc1Cl [Example A30, (S)-N-(1-(2-Chlorophenyl)-2-methylpropyl)-3-(4-(6-(oxetan-3-yl)-2,6-diazaspiro[3.3]heptan-2-yl)phenyl)-1H-indazole-5-carboxamide] |
